According to patent US20090232849A1 (priority 2005, published 2009):
Values joined by “and” are separate entries in the source; they are usually repeats but may differ in a detail not shown here. Equal entries are not always repeated. “Also recorded” adds a separate entry of the source.

Test system: TLT tumor
Parameters: species or system mice
Settings: mouse, in vivo

O=P1(N(CCCl)CCCl)NCCCO1 (centres unmarked) [cyclophosphamide]
regrowth delay to double tumour diameter: 7.73 ± 0.38 days and 7.7 ± 0.4 days | effect of cyclophosphamide alone on regrowth delay (50 mg/kg): No difference in regrowth delay; also recorded: just below the efficacy threshold
